Experimental data reported in patent US11524966B1 (Valo Early Discovery, Inc., priority 2017, dated 2022).

The compounds below were run against T1, USP28 (His-tagged USP28-FL-mammalian) (Homo sapiens, UniProt Q96RU2) (assay: Ubiquitin-Rhodamine 110 Assay for USP28 Activity, Example A-1(a)). Settings: Ubiquitin-Rhodamine 110 assay, Example A-1(a); read-out: USP28 A-1(a) IC50 range.
T1 construct: Expression of USP28 (1-1077)-TEV-6*His (pTT5 vector); made in house; host or cells: Expi293f cells (pTT5 vector)
T1 sequence (Q96RU2 1-1077): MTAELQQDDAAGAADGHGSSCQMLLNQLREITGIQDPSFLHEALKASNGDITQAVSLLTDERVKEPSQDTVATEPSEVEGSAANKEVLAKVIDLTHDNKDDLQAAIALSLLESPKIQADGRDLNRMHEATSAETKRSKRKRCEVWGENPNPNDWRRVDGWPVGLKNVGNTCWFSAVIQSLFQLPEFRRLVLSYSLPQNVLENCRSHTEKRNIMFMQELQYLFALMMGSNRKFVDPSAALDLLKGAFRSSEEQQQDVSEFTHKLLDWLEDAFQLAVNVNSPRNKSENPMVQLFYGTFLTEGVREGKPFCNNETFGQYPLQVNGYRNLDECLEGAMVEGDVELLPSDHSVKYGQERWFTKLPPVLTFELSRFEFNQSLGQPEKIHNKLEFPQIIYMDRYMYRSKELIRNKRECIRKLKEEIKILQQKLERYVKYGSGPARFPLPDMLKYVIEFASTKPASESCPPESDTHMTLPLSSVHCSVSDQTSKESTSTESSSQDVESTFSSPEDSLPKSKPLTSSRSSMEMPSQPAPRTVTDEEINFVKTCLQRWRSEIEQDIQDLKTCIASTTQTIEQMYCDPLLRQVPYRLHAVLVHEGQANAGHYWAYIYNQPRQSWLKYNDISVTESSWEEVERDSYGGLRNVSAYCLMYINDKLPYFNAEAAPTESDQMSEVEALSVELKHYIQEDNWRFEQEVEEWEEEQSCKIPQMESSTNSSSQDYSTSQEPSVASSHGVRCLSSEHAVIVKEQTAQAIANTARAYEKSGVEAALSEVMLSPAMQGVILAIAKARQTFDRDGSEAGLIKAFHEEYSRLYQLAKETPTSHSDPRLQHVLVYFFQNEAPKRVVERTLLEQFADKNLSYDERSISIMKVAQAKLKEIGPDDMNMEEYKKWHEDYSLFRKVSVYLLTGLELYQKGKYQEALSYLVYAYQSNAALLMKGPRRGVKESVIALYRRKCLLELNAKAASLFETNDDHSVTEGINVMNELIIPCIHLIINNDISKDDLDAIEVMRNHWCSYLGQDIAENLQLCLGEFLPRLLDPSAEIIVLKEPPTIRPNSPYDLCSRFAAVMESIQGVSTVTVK
Type: biochemical
Procedure, shortened: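 Full-length His-tagged USP28 (1-1077, Expi293F-expressed; […]) was preincubated 30 min with compound (25 μM–1.3 nM, 10-point 3-fold) in 20 mM Tris-HCl pH 8.0, 3 mM BME, 0.03% BGG, 0.01% Triton X-100. Ub-Rh110 (25 nM) was then added for 45 min at room temperature, stopped with citric acid, and read by fluorescence (485/535 nm).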
Compound `CCn1ccc2cc(C(=O)N[C@H]3CCc4nc(N5C[C@H](N)C6(COC6)C5)ccc4C3)cnc21` [Example 403, N-[(6S)-2-[(8R)-8-amino-2-oxa-6-azaspiro[3.4]octan-6-yl]-5,6,7,8-tetrahydroquinolin-6-yl]-1-ethyl-1H-pyrrolo[2,3-b]pyridine-5-carboxamide] has an IC50 of over 2 µM. In the case of `CCn1ccc2cc(C(=O)N[C@H]3CCc4nc(N5C[C@@H](N)C6(COC6)C5)ccc4C3)cnc21` [Example 404, N-[(6S)-2-[(8S)-8-amino-2-oxa-6-azaspiro[3.4]octan-6-yl]-5,6,7,8-tetrahydroquinolin-6-yl]-1-ethyl-1H-pyrrolo[2,3-b]pyridine-5-carboxamide], the IC50 is reported as 0.2 to 2 µM. `Cc1ccc2c(N)c(C(=O)N[C@H]3CCc4nc(N5CC[C@@]6(C5)OCC[C@H]6N)ccc4C3)sc2n1` [Example 405, 3-amino-N-[(6S)-2-[(4R,5S)-4-amino-1-oxa-7-azaspiro[4.4]nonan-7-yl]-5,6,7,8-tetrahydroquinolin-6-yl]-6-methylthieno[2,3-b]pyridine-2-carboxamide] gave an IC50 of 0.05 to 0.2 µM. `Cc1ccc2c(N)c(C(=O)N[C@H]3CCc4nc(N5CC[C@]6(C5)OCC[C@@H]6N)ccc4C3)sc2n1` [Example 406, 3-amino-N-[(6S)-2-[(4S,5R)-4-amino-1-oxa-7-azaspiro[4.4]nonan-7-yl]-5,6,7,8-tetrahydroquinolin-6-yl]-6-methylthieno[2,3-b]pyridine-2-carboxamide] showed an IC50 of 0.2 to 2 µM. `Cc1ccc2c(N)c(C(=O)N[C@H]3CCc4nc(N5CC[C@@]6(C5)OCC[C@@H]6N)ccc4C3)sc2n1` [Example 407, 3-amino-N-[(6S)-2-[(4S,5S)-4-amino-1-oxa-7-azaspiro[4.4]nonan-7-yl]-5,6,7,8-tetrahydroquinolin-6-yl]-6-methylthieno[2,3-b]pyridine-2-carboxamide] gave an IC50 of 0.05 to 0.2 µM. In the case of `Cc1ccc2c(N)c(C(=O)N[C@H]3CCc4nc(N5CC[C@]6(C5)OCC[C@H]6N)ccc4C3)sc2n1` [Example 408, 3-amino-N-[(6S)-2-[(4R,5R)-4-amino-1-oxa-7-azaspiro[4.4]nonan-7-yl]-5,6,7,8-tetrahydroquinolin-6-yl]-6-methylthieno[2,3-b]pyridine-2-carboxamide], the IC50 is reported as 0.05 to 0.2 µM. In the case of `Cc1ccc2c(N)c(C(=O)N[C@H]3COc4cc(N5CC[C@]6(C5)OCC[C@H]6N)ccc4C3)sc2n1` [Example 410, 3-amino-N-[(3R)-7-[(4R,5R)-4-amino-1-oxa-7-azaspiro[4.4]nonan-7-yl]-3,4-dihydro-2H-1-benzopyran-3-yl]-6-methylthieno[2,3-b]pyridine-2-carboxamide], the IC50 is reported as 0.001 to 0.05 µM. In the case of `Cc1ccc2c(N)c(C(=O)N[C@H]3COc4cc(N5CC[C@@]6(C5)OCC[C@@H]6N)ccc4C3)sc2n1` [Example 411, 3-amino-N-[(3R)-7-[(4S,5S)-4-amino-1-oxa-7-azaspiro[4.4]nonan-7-yl]-3,4-dihydro-2H-1-benzopyran-3-yl]-6-methylthieno[2,3-b]pyridine-2-carboxamide], the IC50 is reported as 0.001 to 0.05 µM. `COC[C@H]1[C@H](N)CCN1c1ccc2c(n1)CC[C@H](NC(=O)c1sc3nc(C)ccc3c1N)C2` [Example 419, 3-amino-N-[(6S)-2-[(2R,3R)-3-amino-2-(methoxymethyl)pyrrolidin-1-yl]-5,6,7,8-tetrahydroquinolin-6-yl]-6-methylthieno[2,3-b]pyridine-2-carboxamide] showed an IC50 of 0.05 to 0.2 µM. `COC[C@@H]1[C@@H](N)CCN1c1ccc2c(n1)CC[C@H](NC(=O)c1sc3nc(C)ccc3c1N)C2` [Example 420, 3-amino-N-[(6S)-2-[(2S,3S)-3-amino-2-(methoxymethyl)pyrrolidin-1-yl]-5,6,7,8-tetrahydroquinolin-6-yl]-6-methylthieno[2,3-b]pyridine-2-carboxamide] showed an IC50 of 0.001 to 0.05 µM. For `CCn1ccc2cc(C(=O)N[C@H]3CCc4nc(N5C[C@H](N)[C@@H](C(F)(F)F)C5)ccc4C3)cnc21` [Example 421, N-[(6S)-2-[(3R,4S)-3-amino-4-(trifluoromethyl)pyrrolidin-1-yl]-5,6,7,8-tetrahydroquinolin-6-yl]-1-ethyl-1H-pyrrolo[2,3-b]pyridine-5-carboxamide], the IC50 was 0.05 to 0.2 µM. With `CCn1ccc2cc(C(=O)N[C@H]3CCc4nc(N5C[C@@H](N)[C@H](C(F)(F)F)C5)ccc4C3)cnc21` [Example 422, N-[(6S)-2-[(3S,4R)-3-amino-4-(trifluoromethyl)pyrrolidin-1-yl]-5,6,7,8-tetrahydroquinolin-6-yl]-1-ethyl-1H-pyrrolo[2,3-b]pyridine-5-carboxamide] the IC50 was 0.2 to 2 µM. `Cc1ccc2c(N)c(C(=O)N[C@H]3COc4cc(N5C[C@@H](CF)[C@@H](N)C5)ccc4C3)sc2n1` [Example 423, 3-amino-N-[(3R)-7-[(3R,4R)-3-amino-4-(fluoromethyl)pyrrolidin-1-yl]-3,4-dihydro-2H-1-benzopyran-3-yl]-6-methylthieno[2,3-b]pyridine-2-carboxamide] gave an IC50 of 0.001 to 0.05 µM. For `Cc1ccc2c(N)c(C(=O)N[C@H]3COc4cc(N5C[C@@H](N)[C@@H]6OCC[C@@H]65)ccc4C3)sc2n1` [Example 425, N-[(3R)-7-[(3aS,6R,6aS)-6-amino-hexahydro-2H-furo[3,2-b]pyrrol-4-yl]-3,4-dihydro-2H-1-benzopyran-3-yl]-3-amino-6-methylthieno[2,3-b]pyridine-2-carboxamide], the IC50 was 0.001 to 0.05 µM. With `Cc1ccc2c(N)c(C(=O)N[C@H]3COc4cc(N5C[C@H](N)[C@H]6OCC[C@H]65)ccc4C3)sc2n1` [Example 426, N-[(3R)-7-[(3aR,6S,6aR)-6-amino-hexahydro-2H-furo[3,2-b]pyrrol-4-yl]-3,4-dihydro-2H-1-benzopyran-3-yl]-3-amino-6-methylthieno[2,3-b]pyridine-2-carboxamide] the IC50 was 0.001 to 0.05 µM. For `CO[C@]1(C)CN(c2ccc3c(n2)CC[C@H](NC(=O)c2sc4nc(C)ccc4c2N)C3)C[C@@H]1N` [Example 427, 3-amino-N-[(6S)-2-[(3R,4S)-4-amino-3-methoxy-3-methylpyrrolidin-1-yl]-5,6,7,8-tetrahydroquinolin-6-yl]-6-methylthieno[2,3-b]pyridine-2-carboxamide], the IC50 was 0.05 to 0.2 µM. `CO[C@@]1(C)CN(c2ccc3c(n2)CC[C@H](NC(=O)c2sc4nc(C)ccc4c2N)C3)C[C@H]1N` [Example 428, 3-amino-N-[(6S)-2-[(3S,4R)-4-amino-3-methoxy-3-methylpyrrolidin-1-yl]-5,6,7,8-tetrahydroquinolin-6-yl]-6-methylthieno[2,3-b]pyridine-2-carboxamide] gave an IC50 of 0.05 to 0.2 µM. Work on `Cc1ccc2c(N)c(C(=O)N[C@H]3CCc4nc(N5C6CC(N)CC5CS(=O)(=O)C6)ccc4C3)sc2n1` (stereo partly drawn) [Example 429, 3-amino-N-[(6S)-2-{7-amino-3,3-dioxo-3λ^6-thia-9-azabicyclo[3.3.1]nonan-9-yl}-5,6,7,8-tetrahydroquinolin-6-yl]-6-methylthieno[2,3-b]pyridine-2-carboxamide] yielded an IC50 of 0.001 to 0.05 µM. `Cc1ccc2c(N)c(C(=O)N[C@H]3CCc4nc(N5C[C@H](N)[C@]6(CCOC6)C5)ccc4C3)sc2n1` [Example 430, 3-amino-N-[(6S)-2-[(5S,9R)-9-amino-2-oxa-7-azaspiro[4.4]nonan-7-yl]-5,6,7,8-tetrahydroquinolin-6-yl]-6-methylthieno[2,3-b]pyridine-2-carboxamide] gave an IC50 of 0.05 to 0.2 µM. `Cc1ccc2c(N)c(C(=O)N[C@H]3CCc4nc(N5C[C@@H](N)[C@@]6(CCOC6)C5)ccc4C3)sc2n1` [Example 431, 3-amino-N-[(6S)-2-[(5R,9S)-9-amino-2-oxa-7-azaspiro[4.4]nonan-7-yl]-5,6,7,8-tetrahydroquinolin-6-yl]-6-methylthieno[2,3-b]pyridine-2-carboxamide] gave an IC50 of 0.05 to 0.2 µM.
